Assay results: article PMC9736374, “Design, Synthesis and Antimicrobial Properties of New Tetracyclic Quinobenzothiazine Derivatives” (International Journal of Molecular Sciences, 2022)
In brackets after ≈: the same amount, converted by molar mass. Blank lines part the entries; values can stand above or below the compound they belong to.

How the values were obtained:
[1] = tested on: S. aureus ATCC 29213 respiratory activity; assay: MTT assay of bacterial respiration; format: cell-based, Staphylococcus aureus; settings: for Conc.: corresponding multiple of MBC with at least 70% inhibition of respiratory activity / Conc.: lowest multiple of MIC with at least 70% inhibition of respiratory activity: S. aureus ATCC 29213, MTT, 24 h
[2] = tested on: methicillin-resistant S. aureus SA 3202 (MRSA1); assay: MBC, agar aliquot subculture method; format: cell-based; settings: Staphylococcus aureus; MRSA1 = SA 3202
[3] = tested on: Staphylococcus aureus ATCC 29213; assay: MIC, microtitration broth method; format: cell-based; settings: ATCC29213; SA = Staphylococcus aureus ATCC 29213; 24 h, 37 °C
[4] = tested on: methicillin-resistant S. aureus SA 3202 (MRSA1); assay: MIC, microtitration broth method; format: cell-based; settings: Staphylococcus aureus; MRSA1 = SA 3202; 24 h, 37 °C
[5] = tested on: methicillin-resistant S. aureus SA 630 (MRSA2); assay: MIC, microtitration broth method; format: cell-based; settings: Staphylococcus aureus; MRSA2 = SA 630; 24 h, 37 °C
[6] = tested on: methicillin-resistant S. aureus SA 630 (MRSA2); assay: MBC, agar aliquot subculture method; format: cell-based; settings: Staphylococcus aureus; MRSA2 = SA 630
[7] = tested on: Staphylococcus aureus ATCC 29213; assay: MBC, agar aliquot subculture method; format: cell-based; settings: ATCC29213; SA = Staphylococcus aureus ATCC 29213
[8] = tested on: methicillin-resistant S. aureus 63718 (MRSA3); assay: MBC, agar aliquot subculture method; format: cell-based; settings: Staphylococcus aureus; MRSA3 = 63718
[9] = tested on: methicillin-resistant S. aureus 63718 (MRSA3); assay: MIC, microtitration broth method; format: cell-based; settings: Staphylococcus aureus; MRSA3 = 63718; 24 h, 37 °C
[10] = tested on: Mycobacterium marinum CAMP 5644; assay: In vitro antimycobacterial MIC, broth dilution micro-method; format: cell-based; settings: CAMP5644, 504 h; MM = Mycobacterium marinum CAMP 5644; 21 days, 28 °C
[11] = tested on: M. smegmatis ATCC 700084; assay: as above; format: cell-based, Mycobacterium smegmatis; settings: Mycolicibacterium smegmatis, ATCC700084, 72 h; MS = M. smegmatis ATCC 700084; 3 days, 37 °C
[12] = tested on: normal human dermal fibroblasts (NHDF); assay: In vitro cell viability, WST-1 assay; format: cell-based; settings: 72 h
Procedure: Compounds were evaluated for their antiproliferative activity using NHDF (normal human dermal fibroblasts, ATCC, Manassas, VA, USA). The cultured cells were kept at 37 °C and 5% CO2. The cells were seeded (1 × 10^4 cells/well/100 μL DMEM supplemented with 10% FCS and streptomycin/penicillin) into 96-well plates (Corning Inc., Corning, NY, USA). Cells were counted using a hemocytometer (Burker chamber) and phase contrast Olympus IX50 microscope equipped with Sony SSC-DC58 AP camera and Olympus DP10 digital camera. The cell viability of the compounds was determined using the Cell Proliferation Reagent WST-1 assay (Roche Molecular Biochemicals, Mannheim, Germany). The examined cells were exposed to the tested compounds (1 mg/mL DMSO stock) for 72 h at various concentrations (0.1–100 μg/mL). The control was included in order to eliminate the DMSO effect at the concentration used. Cell cultures were incubated with WST-1 (10 μL) for 1 h. The absorbance of the samples was measured against a background control at 450 nm using a microplate reader with a reference wavelength at 600 nm. The obtained results are expressed as means of at least two independent experiments performed in triplicate.

[13] = tested on: Enterococcus faecalis ATCC 29212; assay: MBC, agar aliquot subculture method; format: cell-based; settings: ATCC29212; EF = Enterococcus faecalis
[14] = tested on: Enterococcus faecalis ATCC 29212; assay: MIC, microtitration broth method; format: cell-based; settings: ATCC29212; EF = Enterococcus faecalis; 24 h, 37 °C

Conc.: lowest multiple of MIC with at least 70% inhibition of respiratory activity [1]: 32× MIC (32× MBC)
Compound: O=C(O)c1cn(C2CC2)c2cc(N3CCNCC3)c(F)cc2c1=O [CPX, ciprofloxacin, reference compound]
Conc.: corresponding multiple of MBC with at least 70% inhibition of respiratory activity [1]: 32× MIC (32× MBC)
S. aureus Respiration Inhibition ([1]; at the concentration given): 96.1%

Compound: Cc1onc(-c2ccccc2)c1C(=O)N[C@@H]1C(=O)N2[C@@H]1SC(C)(C)[C@@H]2C(=O)O [OXA, oxacillin, reference compound]
MBC [2]: 79.8 µM (≈ 32 µg/mL)
MIC [3]: 1.25 µM (≈ 0.502 µg/mL)
MIC [4]: 79.8 µM (≈ 32 µg/mL)
MIC [5]: 29.7 µM (≈ 11.9 µg/mL)
MBC [6]: 29.7 µM (≈ 11.9 µg/mL)
MBC [7]: 1.25 µM (≈ 0.502 µg/mL)
MBC [8]: 9.9 µM (≈ 3.97 µg/mL)
MIC [9]: 9.9 µM (≈ 3.97 µg/mL)

MIC [10]: 2.43 µM (≈ 2 µg/mL)
MIC [11]: 19.4 µM (≈ 16 µg/mL)
Compound: CO[C@H]1/C=C/O[C@@]2(C)Oc3c(C)c(O)c4c(O)c(c(/C=N/N5CCN(C)CC5)c(O)c4c3C2=O)NC(=O)/C(C)=C\C=C\[C@H](C)[C@H](O)[C@@H](C)[C@@H](O)[C@@H](C)[C@H](OC(C)=O)[C@@H]1C [RIF, rifampicin, reference compound]

Compound: COc1cccc2c1C(=O)c1c(O)c3c(c(O)c1C2=O)C[C@@](O)(C(=O)CO)C[C@@H]3O[C@H]1C[C@H](N)[C@H](O)[C@H](C)O1 [doxorubicin, reference compound]
IC50 [12]: 5.5 µM

Compound: CN(C)[C@@H]1C(O)=C(C(N)=O)C(=O)[C@@]2(O)C(O)=C3C(=O)c4c(O)cccc4[C@@](C)(O)[C@H]3C[C@@H]12 [TTC, tetracycline, reference compound]
MIC [3]: 4.52 µM (≈ 2.01 µg/mL)
MIC [4]: 36.1 µM (≈ 16 µg/mL)
MIC [5]: 36.1 µM (≈ 16 µg/mL)
MIC [9]: > 72.1 µM

Conc.: lowest multiple of MIC with at least 70% inhibition of respiratory activity [1]: 16× MIC (>16× MBC)
MIC [3]: 5.72 µM (≈ 2 µg/mL)
MIC [14]: 2.81 µM (≈ 0.982 µg/mL)
Compound: CC1(C)S[C@@H]2[C@H](NC(=O)[C@H](N)c3ccccc3)C(=O)N2[C@H]1C(=O)O [AMP, ampicillin, reference compound]
Conc.: corresponding multiple of MBC with at least 70% inhibition of respiratory activity [1]: 16× MIC (>16× MBC)
MBC [13]: 2.81 µM (≈ 0.982 µg/mL)
MBC [7]: 5.72 µM (≈ 2 µg/mL)

MIC [10]: 467 µM (≈ 64 µg/mL)
MIC [11]: 117 µM (≈ 16 µg/mL)
Compound: NNC(=O)c1ccncc1 [INH, isoniazid, reference compound]
